In ChEMBL document CHEMBL1201862, “PubChem BioAssay data set” (2004):
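Test compounds were applied to cells in 96-well plates for 48 hours at 5 doses. GI50 is the concentration that inhibits growth by half.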 The source made the active and inactive calls. Rule as the data show it: active = GI50 up to about 1.1 µM and inactive = higher.

What was measured:
Assay in all cases: DTP human tumour cell line panel, 48 h
KM12 = system: KM12
OVCAR-5 = system: OVCAR-5
HCT-116 = system: HCT-116
BT-549 = system: BT-549
NCI-H23 = system: NCI-H23
MDA-N = system: MDA-N
UACC-257 = system: UACC-257
A549 = system: A549
M14 = system: M14
UACC-62 = system: UACC-62
T47D = system: T47D
PC-3 = system: PC-3
SK-MEL-2 = system: SK-MEL-2
TK-10 = system: TK-10
HOP-62 = system: HOP-62
786-0 = system: 786-0
HOP-92 = system: HOP-92
COLO 205 = system: COLO 205
SK-OV-3 = system: SK-OV-3
HCC 2998 = system: HCC 2998
SNB-19 = system: SNB-19
Hs-578T = system: Hs-578T
NCI-H226 = system: NCI-H226
NCI-H460 = system: NCI-H460
U-251 = system: U-251
LOX IMVI = system: LOX IMVI
HT-29 = system: HT-29
SW-620 = system: SW-620
DU-145 = system: DU-145
RPMI-8226 = system: RPMI-8226
K562 = system: K562
MDA-MB-435 = system: MDA-MB-435
Malme-3M = system: Malme-3M
SK-MEL-5 = system: SK-MEL-5
HL-60 = system: HL-60
UO-31 = system: UO-31
MDA-MB-231 = system: MDA-MB-231
OVCAR-4 = system: OVCAR-4
OVCAR-8 = system: OVCAR-8
SR = system: SR
EKVX = system: EKVX
ACHN = system: ACHN
SN12C = system: SN12C
MOLT-4 = system: MOLT-4
SK-MEL-28 = system: SK-MEL-28
HCT-15 = system: HCT-15
MCF7 = system: MCF7
A498 = system: A498
SF-539 = system: SF-539
NCI/ADR-RES = system: NCI/ADR-RES
OVCAR-3 = system: OVCAR-3
CCRF-CEM = system: CCRF-CEM
SF-295 = system: SF-295
CAKI-1 = system: CAKI-1

## CCOC(=O)C#Cc1ccccc1
KM12
  GI50: 12.2 µM (inactive)
OVCAR-5
  GI50: 5.08 µM (inactive)
HCT-116
  GI50: 1.91 µM (inactive)
BT-549
  GI50: 11.6 µM (inactive)
NCI-H23
  GI50: 7.26 µM (inactive)
MDA-N
  GI50: 4.09 µM (inactive)
UACC-257
  GI50: 33.9 µM (inactive)
A549
  GI50: 13.2 µM (inactive)
M14
  GI50: 5.14 µM (inactive)
UACC-62
  GI50: 6.75 µM (inactive)
T47D
  GI50: 19.4 µM (inactive)
PC-3
  GI50: 8.95 µM (inactive)
SK-MEL-2
  GI50: 1.69 µM (inactive)
TK-10
  GI50: 21.6 µM (inactive)
HOP-62
  GI50: 17.3 µM (inactive)
786-0
  GI50: 4.84 µM (inactive)
HOP-92
  GI50: 18.3 µM (inactive)
COLO 205
  GI50: 11.2 µM (inactive)
SK-OV-3
  GI50: 26.6 µM (inactive)
HCC 2998
  GI50: 12.2 µM (inactive)
SNB-19
  GI50: 14.8 µM (inactive)
Hs-578T
  GI50: 19.3 µM (inactive)
NCI-H226
  GI50: 20 µM (inactive)
NCI-H460
  GI50: 60 µM (inactive)
U-251
  GI50: 11.1 µM (inactive)
LOX IMVI
  GI50: 2.96 µM (inactive)
HT-29
  GI50: 7.24 µM (inactive)
SW-620
  GI50: 8.2 µM (inactive)
DU-145
  GI50: 25.8 µM (inactive)
RPMI-8226
  GI50: 12.2 µM (inactive)
K562
  GI50: 2.14 µM (inactive)
MDA-MB-435
  GI50: 7.18 µM (inactive)
Malme-3M
  GI50: 13.1 µM (inactive)
SK-MEL-5
  GI50: 3.72 µM (inactive)
HL-60
  GI50: 14.4 µM (inactive)
UO-31
  GI50: 0.741 µM (active)
MDA-MB-231
  GI50: 16.4 µM (inactive)
OVCAR-4
  GI50: 2.54 µM (inactive)
OVCAR-8
  GI50: 8.75 µM (inactive)
SR
  GI50: 2.05 µM (inactive)
EKVX
  GI50: 2.28 µM (inactive)
ACHN
  GI50: 14.6 µM (inactive)
SN12C
  GI50: 5.55 µM (inactive)
MOLT-4
  GI50: 2.9 µM (inactive)
SK-MEL-28
  GI50: 16.8 µM (inactive)
HCT-15
  GI50: 8.09 µM
MCF7
  GI50: 10.1 µM (inactive)
A498
  GI50: 21.3 µM (inactive)
SF-539
  GI50: 5.74 µM (inactive)
NCI/ADR-RES
  GI50: 4.82 µM (inactive)
OVCAR-3
  GI50: 19.1 µM (inactive)
CCRF-CEM
  GI50: 2.94 µM (inactive)
SF-295
  GI50: 13.5 µM (inactive)
CAKI-1
  GI50: 14.4 µM (inactive)
